Test results taken from article PMC4829348 (Journal of medicinal chemistry, 2016).
Like-named read-outs stand apart in the source and are kept apart here.

Assays:
[1] = target: T1, S31N mutant of the A/M2 protein (Influenza A virus, UniProt P0DOF5, S31N); type: biochemical
[2] = target: T1, S31N mutant of the A/M2 protein; conditions: 100 µM drug; percent inhibition in TEVC assays was previously reported; cited from earlier work
A/WSN/33 virus (M2-S31N) = type: cell-based, influenza A virus; conditions: for EC50: read-out: Plaque Reduction EC50

Row | Compound | % S31N inhibition [1] | other results
1 | O=C1C2CC3CC1CC(NCc1cc(-c4cccs4)on1)(C3)C2 [30a] | 78/N.T. % | 
2 | Brc1ccccc1-c1cc(CNC23CC4CC(CC(C4)C2)C3)no1 [14n] | 77/N.T. % | 
3 | NC12CC3CC(CC(C3)C1)C2 [AMT (1), amantadine, reference compound] | 36% | 
4 | COc1ccc(-c2nc(CNC34CC5CC(CC(C5)C3)C4)no2)c(OC)c1 [compound 18m] | 82/N.T. % | 
5 | c1ccc(-c2nnc(CNC34CC5CC(CC(C5)C3)C4)o2)cc1 [26c] | 61/N.T. % | 
6 | c1cc(-c2nc(CNC34CC5CC(CC(C5)C3)C4)no2)cs1 [18g] | 81/N.T. % | 
7 | c1csc(-c2nc(CNC34CC5CC(CC(C5)C3)C4)cs2)c1 [26h] | 37/N.T. % | 
8 | c1csc(-c2nc(CNC34CC5CC(CC(C5)C3)C4)no2)c1 [18f] |  | % S31N inhibition [2]: 83/N.T. %
9 | COc1cccc(-c2cc(CNC34CC5CC(CC(C5)C3)C4)no2)c1 [14r] | 87/73% | 
10 | Cc1cc(CNC23CC4CC(CC(C4)C2)C3)no1 [14a] |  | % S31N inhibition [2]: 49/N.T. %
11 | COc1ccccc1-c1noc(CNC23CC4CC(CC(C4)C2)C3)n1 [20b] | 58/N.T. % | 
12 | OC12CC3CC(C1)CC(NCc1cc(-c4cccs4)on1)(C3)C2 [compound 30f] |  | EC50 (A/WSN/33 virus (M2-S31N)): < 1 µM
13 | COc1ccc(-c2nc(CNC34CC5CC(CC(C5)C3)C4)no2)cc1 [18k] |  | % S31N inhibition [2]: 86/N.T. %
14 | c1ccc(-c2nc(CNC34CC5CC(CC(C5)C3)C4)no2)cc1 [18i] |  | % S31N inhibition [2]: 75/N.T. %
15 | CCCc1cc(CNC23CC4CC(CC(C4)C2)C3)no1 [14b] | 81/49% | 
16 | c1ccc(-c2cc(CNC34CC5CC(CC(C5)C3)C4)no2)cc1 [14l] |  | % S31N inhibition [2]: 91/N.T. %
17 | c1c(CNC23CC4CC(CC(C4)C2)C3)noc1C1CC1 [14c] |  | decrease of plaque number (A/WSN/33 virus (M2-S31N)): more than 50%
18 | c1csc(-c2nnc(CNC34CC5CC(CC(C5)C3)C4)s2)c1 [26b] | 83/N.T. % | 
19 | c1ccc(-c2nc(CNC34CC5CC(CC(C5)C3)C4)cs2)cc1 [26i] | 24/N.T. % | 
20 | CC(C)c1nc(CNC23CC4CC(CC(C4)C2)C3)no1 [18d] |  | % S31N inhibition [2]: 70/N.T. %
21 | c1csc(-c2cc(CNC34CC5CC(C3)C3(CO3)C(C5)C4)no2)c1 (centres unmarked) [30d] | 61/N.T. % | 
22 | COc1ccc(-c2nnc(CNC34CC5CC(CC(C5)C3)C4)o2)cc1 [26d] | 58/N.T. % | 
23 | c1cc(-c2cc(CNC34CC5CC(CC(C5)C3)C4)no2)cs1 [14i] | 90/N.T. % | 
24 | c1coc(-c2nc(CNC34CC5CC(CC(C5)C3)C4)no2)c1 [18h] | 73/N.T. % | 

Row | Compound | % S31N inhibition [1] | other results
25 | COc1ccsc1-c1cc(CNC23CC4CC(CC(C4)C2)C3)no1 [14k] | 90/87% | 
26 | CC(C)Cc1nc(CNC23CC4CC(CC(C4)C2)C3)no1 [18e] | 62/N.T. % | 
27 | CCCc1nc(CNC23CC4CC(CC(C4)C2)C3)no1 [18b] | 77/19% | 
28 | COCc1cc(CNC23CC4CC(CC(C4)C2)C3)no1 [14e] | 39/N.T. % | 
29 | c1csc(-c2nnc(CNC34CC5CC(CC(C5)C3)C4)o2)c1 [26a] | 52/N.T. % | 
30 | c1c(C2CCCCC2)noc1CNC12CC3CC(CC(C3)C1)C2 [20c] | 67/N.T. % | 
31 | CC1(O)C2CC3CC1CC(NCc1cc(-c4cccs4)on1)(C3)C2 (centres unmarked) [30c] | 87/48% | 
32 | CSC(C)(C)Cc1cc(CNC23CC4CC(CC(C4)C2)C3)no1 [14g] | 70/N.T. % | 
33 | Fc1cccc(F)c1-c1cc(CNC23CC4CC(CC(C4)C2)C3)no1 [14p] | 85/68% | 
34 | c1csc(-c2cc(CNC34CC5COC(CC(C5)C3)C4)no2)c1 (centres unmarked) [30e] | 72/N.T. % | 
35 | CC(C)c1cc(CNC23CC4CC(CC(C4)C2)C3)no1 [14f] | 80/55% | 
36 | Cc1nc(CNC23CC4CC(CC(C4)C2)C3)no1 [18a] |  | % S31N inhibition [2]: 60/N.T. %
37 | c1c(CNC23CC4CC(CC(C4)C2)C3)noc1C1CCC1 [14d] | 84/N.T. % | decrease of plaque number (A/WSN/33 virus (M2-S31N)): more than 50%
38 | c1csc(-c2ncc(CNC34CC5CC(CC(C5)C3)C4)s2)c1 [26e] | 75/N.T. % | 
39 | COc1ccc(-c2cc(CNC34CC5CC(CC(C5)C3)C4)no2)c(OC)c1 [compound 14t] | 62/N.T. % | 
40 | Clc1ccccc1-c1cc(CNC23CC4CC(CC(C4)C2)C3)no1 [14m] | 87/65% | 
41 | COc1ccc(-c2cc(CNC34CC5CC(CC(C5)C3)C4)no2)cc1 [14q] |  | % S31N inhibition [2]: 87/N.T. %
42 | Oc1ccc(NC23CC4CC(CC(C4)C2)C3)c(O)c1 [compound 5] | 67% | 
43 | c1coc(-c2cc(CNC34CC5CC(CC(C5)C3)C4)no2)c1 [14j] | 84/N.T. % | 
44 | CSc1ccccc1-c1cc(CNC23CC4CC(CC(C4)C2)C3)no1 [14s] | 79/N.T. % | 
45 | OC1C2CC3CC1CC(NCc1cc(-c4cccs4)on1)(C3)C2 (centres unmarked) [30b] | 91/56% | EC50 (A/WSN/33 virus (M2-S31N)): < 1 µM
46 | COc1ccc(-c2noc(CNC34CC5CC(CC(C5)C3)C4)n2)cc1OC [20a] | 39/N.T. % | 
47 | Fc1cc(F)cc(-c2cc(CNC34CC5CC(CC(C5)C3)C4)no2)c1 [14o] | 78/N.T. % | 
48 | OC12CC3CC(O)(C1)CC(NCc1cc(-c4cccs4)on1)(C3)C2 [compound 30h] | 88/45% | 
